Data as given in PubChem BioAssay AID330 (DTP/NCI, 2004).
“And” between values parts separate entries of the source, which are not always exact repeats. Identical values can stand only once. Toxic doses and inconclusive results are not listed. How the source made its calls: active means survival T/C of 150% or more; inactive means T/C below 125% in these data. Square brackets hold non-standard residues; d marks the D form. Peptide text beside a SMILES is read from it. ξ: configuration not given here. ξT = CC(O)C(N)C(=O)O

Test system: P388 leukemia ip, CD2F1 mice, survival T/C
Test: NCI In Vivo Anticancer Drug Screen. Data for tumor model P388 Leukemia (intraperitoneal) in CD2F1 (CDF1) mice
Details: endpoint: median survival time, higher = longer survival
How it was run: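 Mice carrying the transplanted tumor received test compound or vehicle. Survival was recorded in each group, and the value is the treated-group measurement divided by that of the vehicle-treated control group.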

[1] = dose: 50.0 mg/kg/injection, schedule: Q01DX005 (ip), vehicle: Klucel (hydroxypropylcellulose) (HPC)
[2] = dose: 100.0 mg/kg/injection, schedule: Q01DX005 (ip), vehicle: Klucel (hydroxypropylcellulose) (HPC)
[3] = dose: 200.0 mg/kg/injection, schedule: Q01DX005 (ip), vehicle: Klucel (hydroxypropylcellulose) (HPC)
[4] = dose: 6.25 mg/kg/injection, schedule: Q01DX009 (ip), vehicle: saline
[5] = dose: 12.5 mg/kg/injection, schedule: Q01DX009 (ip), vehicle: saline
[6] = dose: 25.0 mg/kg/injection, schedule: Q01DX009 (ip), vehicle: saline
[7] = dose: 50.0 mg/kg/injection, schedule: Q01DX009 (ip), vehicle: saline
[8] = dose: 50.0 mg/kg/injection, schedule: Q01DX009 (ip), vehicle: saline with Tween-80
[9] = dose: 100.0 mg/kg/injection, schedule: Q01DX009 (ip), vehicle: saline with Tween-80
[10] = dose: 200.0 mg/kg/injection, schedule: Q01DX009 (ip), vehicle: saline with Tween-80
[11] = dose: 50.0 mg/kg/injection, schedule: Q01DX009 (ip), vehicle: Klucel (hydroxypropylcellulose) (HPC)
[12] = dose: 100.0 mg/kg/injection, schedule: Q01DX009 (ip), vehicle: Klucel (hydroxypropylcellulose) (HPC)
[13] = dose: 200.0 mg/kg/injection, schedule: Q01DX009 (ip), vehicle: Klucel (hydroxypropylcellulose) (HPC)
[14] = dose: 60.0 mg/kg/injection, schedule: Q01DX005 (ip), vehicle: saline with Tween-80
[15] = dose: 120.0 mg/kg/injection, schedule: Q01DX005 (ip), vehicle: saline with Tween-80

Measured: T/C

NC(=O)[C@@H]1CC2CCC1C2 (stereo not given in full)
inactive: [1] 88 % of control | [2] 93 % of control | [3] 87 % of control

CCOc1ccc(/C=N/NC(=O)c2ccccc2NC(=O)c2ccccc2Cl)cc1OC
inactive: dose: 30.0 mg/kg/injection, schedule: Q01DX005 (ip), vehicle: Klucel (hydroxypropylcellulose) (HPC) 101 % of control | dose: 60.0 mg/kg/injection, schedule: Q01DX005 (ip), vehicle: Klucel (hydroxypropylcellulose) (HPC) 101 % of control and 90 % of control | dose: 120.0 mg/kg/injection, schedule: Q01DX005 (ip), vehicle: Klucel (hydroxypropylcellulose) (HPC) 101 % of control | dose: 240.0 mg/kg/injection, schedule: Q01DX005 (ip), vehicle: Klucel (hydroxypropylcellulose) (HPC) 91 % of control

O=C(O)CN(CCN(CC(=O)O)CC(=O)O)CC(=O)O.[Cd+2]
inactive: dose: 1.56 mg/kg/injection, schedule: Q01DX009 (ip), vehicle: saline 97 % of control | dose: 3.12 mg/kg/injection, schedule: Q01DX009 (ip), vehicle: saline 91 % of control | [4] 91 % of control and 94 % of control | [5] 92 % of control and 95 % of control | [6] 92 % of control and 97 % of control | [7] 88 % of control

CC(=O)OC1CC2(C)CCC3C(C)C(=O)OC3C2C(C)C1=O (stereo not given)
inactive: dose: 100.0 mg/kg/injection, schedule: Q04DX002 (ip), vehicle: saline with Tween-80 100 % of control | dose: 200.0 mg/kg/injection, schedule: Q04DX002 (ip), vehicle: saline with Tween-80 100 % of control | dose: 400.0 mg/kg/injection, schedule: Q04DX002 (ip), vehicle: saline with Tween-80 99 % of control and 100 % of control

NC(=S)c1ccc(C2Nc3cccnc3N2)cc1 (stereo not given)
inactive: [8] 93 % of control | [9] 95 % of control | [10] 90 % of control

CC(c1ccc2c(c1)CCC1C2C2OC2C2(O)CC=CC(=O)C12C)C1CC2(C)OC2(C)C(O)O1 (stereo not given)
inactive: dose: 3.0 mg/kg/injection, schedule: Q01DX009 (ip), vehicle: saline with Tween-80 113 % of control | dose: 6.0 mg/kg/injection, schedule: Q01DX009 (ip), vehicle: saline with Tween-80 100 % of control | dose: 12.0 mg/kg/injection, schedule: Q01DX009 (ip), vehicle: saline with Tween-80 109 % of control | dose: 24.0 mg/kg/injection, schedule: Q01DX009 (ip), vehicle: saline with Tween-80 107 % of control | dose: 48.0 mg/kg/injection, schedule: Q01DX009 (ip), vehicle: saline with Tween-80 102 % of control

CN(NC(=O)C(=O)NCc1ccco1)C(=O)Nc1ccc(Cl)cc1
inactive: [8] 103 % of control | [9] 100 % of control | [10] 92 % of control

O=C(Nc1ccc2ccccc2c1)C1C(=O)C(=O)N(c2ccc3ccccc3c2)C1=O (stereo not given)
inactive: [11] 106 % of control | [12] 106 % of control | [13] 108 % of control

COC(=O)/C(=C1/OC(=O)C(c2ccc(OC(C)=O)cc2)=C1O)c1ccc(Cl)cc1
inactive: dose: 50.0 mg/kg/injection, schedule: Q01DX009 (ip), vehicle: saline + Tween-80 + alcohol 111 % of control | dose: 100.0 mg/kg/injection, schedule: Q01DX009 (ip), vehicle: saline + Tween-80 + alcohol 115 % of control

CC(O)C(N)C(=O)NCC(=O)NCC(=O)O (stereo not drawn) (H-[ξT]-Gly-Gly-OH)
inactive: dose: 50.0 mg/kg/injection, schedule: Q01DX005 (ip), vehicle: saline 101 % of control | dose: 100.0 mg/kg/injection, schedule: Q01DX005 (ip), vehicle: saline 101 % of control | dose: 200.0 mg/kg/injection, schedule: Q01DX005 (ip), vehicle: saline 104 % of control

CCOC(=O)C(Cc1ccc(O)cc1)NC(=O)c1cc2c(cn1)[nH]c1ccccc12 (stereo not given)
inactive: [14] 101 % of control | [15] 117 % of control

CC(=O)c1ccc(NC(=O)C#N)cc1
inactive: dose: 7.5 mg/kg/injection, schedule: Q01DX005 (ip), vehicle: saline with Tween-80 104 % of control | dose: 15.0 mg/kg/injection, schedule: Q01DX005 (ip), vehicle: saline with Tween-80 110 % of control

O=C(Nc1cccc([N+](=O)[O-])c1)OCC#CCCl
inactive: dose: 50.0 mg/kg/injection, schedule: Q01DX005 (ip), vehicle: saline + Tween-80 + alcohol 102 % of control | dose: 100.0 mg/kg/injection, schedule: Q01DX005 (ip), vehicle: saline + Tween-80 + alcohol 101 % of control | dose: 200.0 mg/kg/injection, schedule: Q01DX005 (ip), vehicle: saline + Tween-80 + alcohol 100 % of control

O=C(O)c1ccc(C(Cl)(Cl)Cl)cc1
inactive: dose: 100.0 mg/kg/injection, schedule: Q04DX003 (ip), vehicle: saline sonified 113 % of control | dose: 200.0 mg/kg/injection, schedule: Q04DX003 (ip), vehicle: saline sonified 113 % of control | dose: 400.0 mg/kg/injection, schedule: Q04DX003 (ip), vehicle: saline sonified 113 % of control

CN(C)CC1=Nc2cccc3cccc(c23)N1
inactive: [14] 102 % of control | [15] 106 % of control

Cc1ccc(C(O)(c2ccc(C)cc2)C2(O)CCN(C)CC2)cc1
inactive: [1] 107 % of control | [2] 97 % of control | [3] 92 % of control

CCCCN1C(=O)/C(=C/c2ccc(OC)cc2)SC1=S
inactive: [8] 100 % of control | [9] 94 % of control | [10] 90 % of control

O=C1C=C(N2CCOCC2)C(=O)C=C1N1CCOCC1
inactive: [1] 90 % of control | [2] 98 % of control | [3] 92 % of control

NC(=O)c1sc(SCc2ccccc2)c(-[n+]2ccccc2)c1N
inactive: dose: 25.0 mg/kg/injection, schedule: Q04DX002 (ip), vehicle: saline with Tween-80 105 % of control | dose: 50.0 mg/kg/injection, schedule: Q04DX002 (ip), vehicle: saline with Tween-80 105 % of control

CC(=O)C(O)N1C(=O)C=CC1=O (stereo not given)
inactive: dose: 2.5 mg/kg/injection, schedule: Q01DX009 (ip), vehicle: saline with Tween-80 86 % of control | dose: 2.5 mg/kg/injection, schedule: Q04DX003 (ip), vehicle: saline 100 % of control | dose: 5.0 mg/kg/injection, schedule: Q04DX003 (ip), vehicle: saline 95 % of control | dose: 10.0 mg/kg/injection, schedule: Q04DX003 (ip), vehicle: saline 100 % of control

O=CNc1c(Br)cc2c(c1Br)Cc1cc([N+](=O)[O-])ccc1-2
inactive: [4] 97 % of control | [5] 90 % of control | [6] 92 % of control | [7] 89 % of control

CCCCOP(=O)(O)OCCCC.[U]
inactive: dose: 6.25 mg/kg/injection, schedule: Q01DX009 (ip), vehicle: saline with Tween-80 97 % of control

CC(=O)OC1C=CC(=O)C1(O)CO (stereo not given)
inactive: dose: 2.0 mg/kg/injection, schedule: Q01DX009 (ip), vehicle: saline 97 % of control | dose: 4.0 mg/kg/injection, schedule: Q01DX009 (ip), vehicle: saline 98 % of control | dose: 8.0 mg/kg/injection, schedule: Q01DX009 (ip), vehicle: saline 118 % of control | dose: 16.0 mg/kg/injection, schedule: Q01DX009 (ip), vehicle: saline 116 % of control

CC1CCCN(CC(O)CN2C[C@@H](C)N(CC(O)CN3CCCC(C)C3)[C@H](C)C2)C1 (stereo not given in full)
inactive: dose: 12.5 mg/kg/injection, schedule: Q01DX005 (ip), vehicle: saline with Tween-80 100 % of control | dose: 25.0 mg/kg/injection, schedule: Q01DX005 (ip), vehicle: saline with Tween-80 100 % of control | dose: 50.0 mg/kg/injection, schedule: Q01DX005 (ip), vehicle: saline with Tween-80 100 % of control and 112 % of control

O=C(Nc1cccc2c(O)c(N=Nc3ccc(S(=O)(=O)Nc4nccs4)cc3)cc(N=Nc3ccc(S(=O)(=O)Nc4nccs4)cc3)c12)C(Cl)Cl
inactive: [8] 102 % of control | [9] 106 % of control | [10] 98 % of control

CC(C)c1ccc2c[n+]3ccccc3cc2c1
inactive: dose: 6.25 mg/kg/injection, schedule: Q01DX005 (ip), vehicle: Klucel (hydroxypropylcellulose) (HPC) 100 % of control and 108 % of control | dose: 12.5 mg/kg/injection, schedule: Q01DX005 (ip), vehicle: Klucel (hydroxypropylcellulose) (HPC) 106 % of control and 112 % of control

NC(=O)C1C2C=CC(O2)C1C(=O)O (stereo not given)
inactive: dose: 7.5 mg/kg/injection, schedule: Q01DX005 (ip), vehicle: saline 100 % of control | dose: 15.0 mg/kg/injection, schedule: Q01DX005 (ip), vehicle: saline 104 % of control | dose: 30.0 mg/kg/injection, schedule: Q01DX005 (ip), vehicle: saline 104 % of control

Cc1ccc(N2OC3(CCCCC3)n3c(=O)c4ccccc4c(=O)n3C2c2ccccc2)cc1 (stereo not given)
inactive: [11] 105 % of control | [12] 106 % of control | [13] 99 % of control
